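Results reflect a 48-hour exposure of cells in 96-well plates to compound at five concentrations. GI50 marks 50% less growth. TGI: concentration producing complete growth inhibition.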
Tests used:
Experiment in all cases: growth of human tumour cells (NCI), 48 h
CAKI-1 renal = test system: CAKI-1 renal
DU-145 prostate = test system: DU-145 prostate
MALME-3M melanoma = test system: MALME-3M melanoma
MDA-MB-435 = test system: MDA-MB-435
NCI-H460 lung = test system: NCI-H460 lung
OVCAR-4 ovarian = test system: OVCAR-4 ovarian
PC-3 prostate = test system: PC-3 prostate
SF-539 CNS = test system: SF-539 CNS
SK-MEL-5 melanoma = test system: SK-MEL-5 melanoma
SK-OV-3 ovarian = test system: SK-OV-3 ovarian

COc1ccc(-c2ccc(-c3ccc(C(=N)N)nc3)s2)cc1Cl
GI50 (CAKI-1 renal): 1740 nM | TGI (CAKI-1 renal): 3120 nM | GI50 (DU-145 prostate): 1770 nM | TGI (DU-145 prostate): 3150 nM | GI50 (MALME-3M melanoma): 1780 nM | TGI (MALME-3M melanoma): 3320 nM | GI50 (MDA-MB-435): 1730 nM | TGI (MDA-MB-435): 3120 nM | GI50 (NCI-H460 lung): 1800 nM | TGI (NCI-H460 lung): 3360 nM | GI50 (OVCAR-4 ovarian): 1740 nM | TGI (OVCAR-4 ovarian): 3250 nM | GI50 (PC-3 prostate): 1780 nM | TGI (PC-3 prostate): 3490 nM | GI50 (SF-539 CNS): 1740 nM | TGI (SF-539 CNS): 3170 nM | GI50 (SK-MEL-5 melanoma): 1820 nM | TGI (SK-MEL-5 melanoma): 3320 nM | GI50 (SK-OV-3 ovarian): 1750 nM | TGI (SK-OV-3 ovarian): 3360 nM

Reference: PubChem BioAssay (NCI)
